Test results reported in patent US7846966B2, “Chroman derivatives as estrogenic compounds” (N.V. Organon, priority 2000, dated 2010).

Tested on: human estrogen receptor α (hERα) or β receptor (hERβ)
Experiment: in vitro transactivation bioassay (estrogenic activity) in recombinant CHO cells co-transfected with hER, rat oxytocin promoter and luciferase reporter
Assay type: cell-based
Conditions: for Potency Transactivation (% relative to 17β-estradiol): agonist potency ratio vs estradiol, CHO cells, luciferase reporter, receptor subtype not given; for β/α ratio: ratio of hERβ to hERα
Method: The estrogenic and antiestrogenic activity of compounds is determined in an in vitro bioassay with recombinant Chinese hamster ovary (CHO) cells stably co-transfected with the human estrogen receptor α (hERα) or β receptor (hERβ), the rat oxytocin promoter (RO) and the luciferase reporter gene (LUC). The estrogenic activity (potency ratio) of a test compound to stimulate the transactivation of the enzyme luciferase mediated via the estrogen receptors hERα or hERβ is compared with the standard estrogen estradiol. The antiestrogenic activity (potency ratio) of a test compound to inhibit the transactivation of the enzyme luciferase mediated via the estrogen receptors hERα or hERβ by the estrogen estradiol is compared with the standard ICI 164.384 (=(7α, 17β)-N-butyl-3,17-dihydroxy-N-methylestra-1,3,5(10)-triene-7-undecanamide).

**Q.** What does the source list for CCCC(=O)Oc1ccc(C2Oc3ccc(OC(=O)CCC)cc3C(Cc3ccccc3)C2CC)cc1 (racemic) [Compound 6a]?
**A.** Potency Transactivation (% relative to 17β-estradiol): +++ (+++ >10%); β/α ratio: +++ (+++ >30)

**Q.** Which results are given for CCC1C(Cc2ccccc2)c2cc(OC(=O)C(C)(C)C)ccc2OC1c1ccc(OC(=O)C(C)(C)C)cc1 (racemic) [Compound 6b]?
**A.** Potency Transactivation (% relative to 17β-estradiol): + (+ between 0.1-4%); β/α ratio: + (+ between 3.5-10)

**Q.** How did the “Potency Transactivation (% relative to 17β-estradiol)” value turn out when CCC1C(Cc2ccccc2)c2cc(O)ccc2OC1c1ccc(O)cc1 (stereo not drawn) [Compound 5b] was run?
**A.** Its value is “+++ (+++ >10%)”.

**Q.** What about the β/α ratio of the same compound?
**A.** The β/α ratio was “+++ (+++ >30)”.
